Data set [1] in a line: UV protection in vitro by spectrophotometer (SPF calculation). Conditions: 20 μg/ml in ethanol; absorbance 290-320 nm. It counts as physicochemical.
In data set [2] the test system is type I Collagen in human skin fibroblasts (WS1). In words: Stimulation of collagen type I in skin fibroblasts (immunofluorescence). Particulars: positive control at 10 ng/mL. The data set is classed as cell-based. How it is done: The effect of the extract on collagen stimulation was evaluated using specific antibodies to type I Collagen. Once bound to collagen, the primary antibody is detected by a secondary antibody on which a fluorophore is grafted. Human skin fibroblasts (WS1, ATCC CRL-1502) were seeded in 96-well microplates in a full decomplemented culture medium and incubated overnight at 37° C. and 5% CO2 to allow their adherence. Thereafter, the cells were incubated for 24 hours in the absence or presence of increasing concentrations of Red maple bark extract (12.5, 25, 50 and 100 μg/mL). The culture medium containing the extract was then removed and the cells were fixed with 95% ethanol for 10 minutes. The cells were washed three times with PBS and permeabilized with 0.5% Triton solution in PBS for 15 minutes. […] The fluorescence emitted by the secondary antibody was then measured and pictures were taken with a fluorescence microscope Cytation3.
The effect of the extract on collagen stimulation was evaluated using specific antibodies to type I Collagen. Once bound to collagen, the primary antibody is detected by a secondary antibody on which a fluorophore is grafted. […] The fluorescence emitted by the secondary antibody was then measured and pictures were taken with a fluorescence microscope Cytation3.

The source of these data is patent publication US10722451B2, “Tree bark extract as anti-aging composition and uses thereof” (LES LABORATOIRES BIOFOREXTRA, priority 2017, dated 2020).

`CC1CC(OC(=O)c2ccccc2O)CC(C)(C)C1` (centres unmarked) [Homosalate]: in data set [1], the SPF is listed as 3.9 ± 0.2. Consider TGF-β, for which the “average increase of collagen (fluorescence) compared to untreated cells” value in data set [2] is 56%.
